In the NIST ThermoML archive (doi:10.1021/acs.jced.7b00503):
± gives the expanded uncertainty stated by the source.

Experiments:
[1] = Pendant drop shape
[2] = wn = mass fraction of the nth substance listed; details: Pendant drop shape

O [water]
surface tension liquid-gas ([1]; 293.15 K): 72.75 ± 0.84 mN/m
surface tension liquid-gas ([1]; 298.15 K): 71.97 ± 0.84 mN/m
surface tension liquid-gas ([1]; 303.15 K): 71.15 ± 0.83 mN/m
surface tension liquid-gas ([1]; 313.15 K): 69.55 ± 0.83 mN/m
surface tension liquid-gas ([1]; 323.15 K): 67.9 ± 0.82 mN/m
surface tension liquid-gas ([1]; 333.15 K): 66.17 ± 0.81 mN/m
surface tension liquid-gas ([1]; 343.15 K): 64.39 ± 0.8 mN/m
surface tension liquid-gas ([1]; 353.15 K): 62.61 ± 0.79 mN/m

[Br-].[K+] [potassium bromide] + O
surface tension liquid-gas ([2]; 293.15 K, w1 = 0.05): 73.93 ± 0.85 mN/m
surface tension liquid-gas ([2]; 293.15 K, w1 = 0.1): 74.51 ± 0.85 mN/m
surface tension liquid-gas ([2]; 293.15 K, w1 = 0.15): 74.9 ± 0.85 mN/m
surface tension liquid-gas ([2]; 293.15 K, w1 = 0.2): 75.3 ± 0.86 mN/m
surface tension liquid-gas ([2]; 293.15 K, w1 = 0.25): 76.16 ± 0.86 mN/m
surface tension liquid-gas ([2]; 293.15 K, w1 = 0.3): 77.43 ± 0.87 mN/m
surface tension liquid-gas ([2]; 293.15 K, w1 = 0.35): 78.85 ± 0.88 mN/m
surface tension liquid-gas ([2]; 293.15 K, w1 = 0.4): 80.3 ± 0.89 mN/m
surface tension liquid-gas ([2]; 303.15 K, w1 = 0.05): 72.42 ± 0.84 mN/m
surface tension liquid-gas ([2]; 303.15 K, w1 = 0.1): 73.05 ± 0.84 mN/m
surface tension liquid-gas ([2]; 303.15 K, w1 = 0.15): 73.27 ± 0.85 mN/m
surface tension liquid-gas ([2]; 303.15 K, w1 = 0.2): 73.82 ± 0.85 mN/m
surface tension liquid-gas ([2]; 303.15 K, w1 = 0.25): 74.82 ± 0.86 mN/m
surface tension liquid-gas ([2]; 303.15 K, w1 = 0.3): 76.15 ± 0.86 mN/m
surface tension liquid-gas ([2]; 303.15 K, w1 = 0.35): 77.51 ± 0.87 mN/m
surface tension liquid-gas ([2]; 303.15 K, w1 = 0.4): 78.92 ± 0.88 mN/m
surface tension liquid-gas ([2]; 313.15 K, w1 = 0.05): 70.85 ± 0.83 mN/m
surface tension liquid-gas ([2]; 313.15 K, w1 = 0.1): 71.44 ± 0.84 mN/m
surface tension liquid-gas ([2]; 313.15 K, w1 = 0.15): 71.74 ± 0.84 mN/m
surface tension liquid-gas ([2]; 313.15 K, w1 = 0.2): 72.29 ± 0.84 mN/m
surface tension liquid-gas ([2]; 313.15 K, w1 = 0.25): 73.39 ± 0.85 mN/m
surface tension liquid-gas ([2]; 313.15 K, w1 = 0.3): 74.72 ± 0.86 mN/m
surface tension liquid-gas ([2]; 313.15 K, w1 = 0.35): 76.17 ± 0.86 mN/m
surface tension liquid-gas ([2]; 313.15 K, w1 = 0.4): 77.58 ± 0.87 mN/m
surface tension liquid-gas ([2]; 323.15 K, w1 = 0.05): 69.14 ± 0.82 mN/m
surface tension liquid-gas ([2]; 323.15 K, w1 = 0.1): 69.86 ± 0.83 mN/m
surface tension liquid-gas ([2]; 323.15 K, w1 = 0.15): 70.21 ± 0.83 mN/m
surface tension liquid-gas ([2]; 323.15 K, w1 = 0.2): 70.82 ± 0.83 mN/m
surface tension liquid-gas ([2]; 323.15 K, w1 = 0.25): 71.86 ± 0.84 mN/m
surface tension liquid-gas ([2]; 323.15 K, w1 = 0.3): 73.23 ± 0.85 mN/m
surface tension liquid-gas ([2]; 323.15 K, w1 = 0.35): 74.64 ± 0.86 mN/m
surface tension liquid-gas ([2]; 323.15 K, w1 = 0.4): 76.06 ± 0.86 mN/m
surface tension liquid-gas ([2]; 333.15 K, w1 = 0.05): 67.31 ± 0.82 mN/m
surface tension liquid-gas ([2]; 333.15 K, w1 = 0.1): 67.95 ± 0.82 mN/m
surface tension liquid-gas ([2]; 333.15 K, w1 = 0.15): 68.49 ± 0.82 mN/m
surface tension liquid-gas ([2]; 333.15 K, w1 = 0.2): 69.25 ± 0.83 mN/m
surface tension liquid-gas ([2]; 333.15 K, w1 = 0.25): 70.24 ± 0.83 mN/m
surface tension liquid-gas ([2]; 333.15 K, w1 = 0.3): 71.64 ± 0.84 mN/m
surface tension liquid-gas ([2]; 333.15 K, w1 = 0.35): 73.11 ± 0.85 mN/m
surface tension liquid-gas ([2]; 333.15 K, w1 = 0.4): 74.53 ± 0.86 mN/m
surface tension liquid-gas ([2]; 343.15 K, w1 = 0.05): 65.4 ± 0.81 mN/m
surface tension liquid-gas ([2]; 343.15 K, w1 = 0.1): 66.14 ± 0.81 mN/m
surface tension liquid-gas ([2]; 343.15 K, w1 = 0.15): 66.77 ± 0.81 mN/m
surface tension liquid-gas ([2]; 343.15 K, w1 = 0.2): 67.46 ± 0.82 mN/m
surface tension liquid-gas ([2]; 343.15 K, w1 = 0.25): 68.61 ± 0.82 mN/m
surface tension liquid-gas ([2]; 343.15 K, w1 = 0.3): 69.93 ± 0.83 mN/m
surface tension liquid-gas ([2]; 343.15 K, w1 = 0.35): 71.39 ± 0.84 mN/m
surface tension liquid-gas ([2]; 343.15 K, w1 = 0.4): 72.87 ± 0.85 mN/m
surface tension liquid-gas ([2]; 353.15 K, w1 = 0.05): 63.44 ± 0.8 mN/m
surface tension liquid-gas ([2]; 353.15 K, w1 = 0.1): 64.11 ± 0.8 mN/m
surface tension liquid-gas ([2]; 353.15 K, w1 = 0.15): 64.86 ± 0.8 mN/m
surface tension liquid-gas ([2]; 353.15 K, w1 = 0.2): 65.73 ± 0.81 mN/m
surface tension liquid-gas ([2]; 353.15 K, w1 = 0.25): 66.79 ± 0.82 mN/m
surface tension liquid-gas ([2]; 353.15 K, w1 = 0.3): 68.15 ± 0.82 mN/m
surface tension liquid-gas ([2]; 353.15 K, w1 = 0.35): 69.57 ± 0.83 mN/m
surface tension liquid-gas ([2]; 353.15 K, w1 = 0.4): 71.22 ± 0.84 mN/m

O [water] + [Cl-].[Na+]
surface tension liquid-gas ([2]; 293.15 K, w2 = 0): 72.75 ± 0.84 mN/m
surface tension liquid-gas ([2]; 298.15 K, w2 = 0): 71.97 ± 0.84 mN/m
surface tension liquid-gas ([2]; 303.15 K, w2 = 0): 71.15 ± 0.83 mN/m
surface tension liquid-gas ([2]; 313.15 K, w2 = 0): 69.55 ± 0.83 mN/m
surface tension liquid-gas ([2]; 323.15 K, w2 = 0): 67.9 ± 0.82 mN/m
surface tension liquid-gas ([2]; 333.15 K, w2 = 0): 66.17 ± 0.81 mN/m

[I-].[Na+] [sodium iodide] + O
surface tension liquid-gas ([2]; 293.15 K, w1 = 0.05): 73.15 ± 0.84 mN/m
surface tension liquid-gas ([2]; 293.15 K, w1 = 0.1): 73.6 ± 0.85 mN/m
surface tension liquid-gas ([2]; 293.15 K, w1 = 0.15): 74.17 ± 0.85 mN/m
surface tension liquid-gas ([2]; 293.15 K, w1 = 0.2): 74.7 ± 0.85 mN/m
surface tension liquid-gas ([2]; 293.15 K, w1 = 0.25): 75.15 ± 0.86 mN/m
surface tension liquid-gas ([2]; 293.15 K, w1 = 0.3): 75.5 ± 0.86 mN/m
surface tension liquid-gas ([2]; 293.15 K, w1 = 0.35): 76.29 ± 0.86 mN/m
surface tension liquid-gas ([2]; 293.15 K, w1 = 0.4): 77.1 ± 0.87 mN/m
surface tension liquid-gas ([2]; 293.15 K, w1 = 0.45): 78.25 ± 0.88 mN/m
surface tension liquid-gas ([2]; 293.15 K, w1 = 0.5): 79.35 ± 0.88 mN/m
surface tension liquid-gas ([2]; 293.15 K, w1 = 0.55): 80.66 ± 0.89 mN/m
surface tension liquid-gas ([2]; 298.15 K, w1 = 0.05): 72.4 ± 0.84 mN/m
surface tension liquid-gas ([2]; 298.15 K, w1 = 0.1): 73 ± 0.84 mN/m
surface tension liquid-gas ([2]; 298.15 K, w1 = 0.15): 73.48 ± 0.85 mN/m
surface tension liquid-gas ([2]; 298.15 K, w1 = 0.2): 73.96 ± 0.85 mN/m
surface tension liquid-gas ([2]; 298.15 K, w1 = 0.25): 74.4 ± 0.85 mN/m
surface tension liquid-gas ([2]; 298.15 K, w1 = 0.3): 74.9 ± 0.86 mN/m
surface tension liquid-gas ([2]; 298.15 K, w1 = 0.35): 75.71 ± 0.86 mN/m
surface tension liquid-gas ([2]; 298.15 K, w1 = 0.4): 76.5 ± 0.87 mN/m
surface tension liquid-gas ([2]; 298.15 K, w1 = 0.45): 77.63 ± 0.87 mN/m
surface tension liquid-gas ([2]; 298.15 K, w1 = 0.5): 78.85 ± 0.88 mN/m
surface tension liquid-gas ([2]; 298.15 K, w1 = 0.55): 80.14 ± 0.89 mN/m
surface tension liquid-gas ([2]; 303.15 K, w1 = 0.05): 71.66 ± 0.84 mN/m
surface tension liquid-gas ([2]; 303.15 K, w1 = 0.1): 72.22 ± 0.84 mN/m
surface tension liquid-gas ([2]; 303.15 K, w1 = 0.15): 72.79 ± 0.84 mN/m
surface tension liquid-gas ([2]; 303.15 K, w1 = 0.2): 73.34 ± 0.85 mN/m
surface tension liquid-gas ([2]; 303.15 K, w1 = 0.25): 73.8 ± 0.85 mN/m
surface tension liquid-gas ([2]; 303.15 K, w1 = 0.3): 74.26 ± 0.85 mN/m
surface tension liquid-gas ([2]; 303.15 K, w1 = 0.35): 75.08 ± 0.86 mN/m
surface tension liquid-gas ([2]; 303.15 K, w1 = 0.4): 75.85 ± 0.86 mN/m
surface tension liquid-gas ([2]; 303.15 K, w1 = 0.45): 77.03 ± 0.87 mN/m
surface tension liquid-gas ([2]; 303.15 K, w1 = 0.5): 78.34 ± 0.88 mN/m
surface tension liquid-gas ([2]; 303.15 K, w1 = 0.55): 79.68 ± 0.89 mN/m
surface tension liquid-gas ([2]; 313.15 K, w1 = 0.05): 70.23 ± 0.83 mN/m
surface tension liquid-gas ([2]; 313.15 K, w1 = 0.1): 70.81 ± 0.83 mN/m
surface tension liquid-gas ([2]; 313.15 K, w1 = 0.15): 71.36 ± 0.84 mN/m
surface tension liquid-gas ([2]; 313.15 K, w1 = 0.2): 71.85 ± 0.84 mN/m
surface tension liquid-gas ([2]; 313.15 K, w1 = 0.25): 72.45 ± 0.84 mN/m
surface tension liquid-gas ([2]; 313.15 K, w1 = 0.3): 72.92 ± 0.85 mN/m
surface tension liquid-gas ([2]; 313.15 K, w1 = 0.35): 73.76 ± 0.85 mN/m
surface tension liquid-gas ([2]; 313.15 K, w1 = 0.4): 74.6 ± 0.86 mN/m
surface tension liquid-gas ([2]; 313.15 K, w1 = 0.45): 75.96 ± 0.86 mN/m
surface tension liquid-gas ([2]; 313.15 K, w1 = 0.5): 77.3 ± 0.87 mN/m
surface tension liquid-gas ([2]; 313.15 K, w1 = 0.55): 78.66 ± 0.88 mN/m
surface tension liquid-gas ([2]; 323.15 K, w1 = 0.05): 68.78 ± 0.82 mN/m
surface tension liquid-gas ([2]; 323.15 K, w1 = 0.1): 69.34 ± 0.83 mN/m
surface tension liquid-gas ([2]; 323.15 K, w1 = 0.15): 69.81 ± 0.83 mN/m
surface tension liquid-gas ([2]; 323.15 K, w1 = 0.2): 70.35 ± 0.83 mN/m
surface tension liquid-gas ([2]; 323.15 K, w1 = 0.25): 70.95 ± 0.84 mN/m
surface tension liquid-gas ([2]; 323.15 K, w1 = 0.3): 71.56 ± 0.84 mN/m
surface tension liquid-gas ([2]; 323.15 K, w1 = 0.35): 72.5 ± 0.84 mN/m
surface tension liquid-gas ([2]; 323.15 K, w1 = 0.4): 73.35 ± 0.85 mN/m
surface tension liquid-gas ([2]; 323.15 K, w1 = 0.45): 74.77 ± 0.86 mN/m
surface tension liquid-gas ([2]; 323.15 K, w1 = 0.5): 76.17 ± 0.87 mN/m
surface tension liquid-gas ([2]; 323.15 K, w1 = 0.55): 77.68 ± 0.87 mN/m
surface tension liquid-gas ([2]; 333.15 K, w1 = 0.05): 67.4 ± 0.82 mN/m
surface tension liquid-gas ([2]; 333.15 K, w1 = 0.1): 67.93 ± 0.82 mN/m
surface tension liquid-gas ([2]; 333.15 K, w1 = 0.15): 68.42 ± 0.82 mN/m
surface tension liquid-gas ([2]; 333.15 K, w1 = 0.2): 68.86 ± 0.82 mN/m
surface tension liquid-gas ([2]; 333.15 K, w1 = 0.25): 69.43 ± 0.83 mN/m
surface tension liquid-gas ([2]; 333.15 K, w1 = 0.3): 69.96 ± 0.83 mN/m
surface tension liquid-gas ([2]; 333.15 K, w1 = 0.35): 71.19 ± 0.84 mN/m
surface tension liquid-gas ([2]; 333.15 K, w1 = 0.4): 72.24 ± 0.84 mN/m
surface tension liquid-gas ([2]; 333.15 K, w1 = 0.45): 73.77 ± 0.85 mN/m
surface tension liquid-gas ([2]; 333.15 K, w1 = 0.5): 75.04 ± 0.86 mN/m
surface tension liquid-gas ([2]; 333.15 K, w1 = 0.55): 77.15 ± 0.87 mN/m
